This is an account of results in ChEMBL document CHEMBL4622951, “Chemical constituents of Callistemon citrinus from Egypt and their antiausterity activity against PANC-1 human pancreatic cancer cell line” (2020).

The subject of assay [1] is PANC-1. Briefly: Cytotoxicity against human PANC1 cells in nutrient-deprived medium. Format: functional.
Assay [2] has as its system PANC-1. Description: Inhibition of cell migration of human PANC1 cells at 20 uM measured after 24 hrs by wound healing assay (reference value: 46 %). In kind it is functional. The note with it: PANC-1, 24 h.
The test system of assay [3] is PANC-1. Briefly: Inhibition of colony formation of human PANC1 cells at 2.5 to 10 uM incubated for 24 hrs followed by compound washout and subsequent incubation for 10 days by crystal violet staining based assay. Format: functional, cell-based.
For assay [4], the system named is PANC-1. Description: Induction of apoptosis in human PANC1 cells assessed as decrease in membrane integrity at 1 nM incubated for 24 hrs by ethidium bromide and acridine orange based phase contrast microscopy analysis. In kind it is functional, cell-based.
For assay [5], the system named is PANC-1. Description: Inhibition of cell migration of human PANC1 cells at 20 uM measured after 48 hrs by wound healing assay (reference value: 100 %). Format: functional. The note with it: PANC-1, 48 h.
The test system of assay [6] is PANC-1. Briefly: Inhibition of cell migration of human PANC1 cells at 10 uM measured after 12 hrs by wound healing assay (reference value: 73 %). In kind it is functional. The note with it: PANC-1, 12 h.
In assay [7] the test system is PANC-1. Briefly: Inhibition of cell migration of human PANC1 cells at 20 uM measured after 12 hrs by wound healing assay (reference value: 73 %). In kind it is functional. Particulars: PANC-1, 12 h.
The subject of assay [8] is PANC-1. Description: Inhibition of cell migration of human PANC1 cells measured upto 48 hrs by wound healing assay. Format: functional, cell-based.
Assay [9] relates to PANC-1. Description: Inhibition of cell migration of human PANC1 cells at 10 uM measured after 24 hrs by wound healing assay (reference value: 46 %). Format: functional. The note with it: PANC-1, 24 h.
Assay [10] deals with PANC-1. Description: Inhibition of cell migration of human PANC1 cells at 10 uM measured after 36 hrs by wound healing assay (reference value: 100 %). Particulars: PANC-1, 36 h. In kind it is functional.
For assay [11], the system named is PANC-1. Briefly: Inhibition of cell migration of human PANC1 cells at 20 uM measured after 36 hrs by wound healing assay (reference value: 100 %). In kind it is functional. Particulars: PANC-1, 36 h.
In assay [12] the test system is PANC-1. Description: Inhibition of cell migration of human PANC1 cells at 10 uM measured after 48 hrs by wound healing assay (reference value: 100 %). Format: functional. Particulars: PANC-1, 48 h.

As a reminder, the inhibition is the percentage by which the read-out fell short of the control.

Activity calls are given as the source filed them. The calls are words filed in the database; no cut-off is given here.

`C[C@H]1[C@H](C)CC[C@]2(CO)CC[C@]3(C)C(=CC[C@@H]4[C@@]5(C)CC[C@H](O)C(C)(C)[C@@H]5CC[C@]43C)[C@H]12` [UVAOL]: in the assay with PANC-1 [1], the PC50 turned out to be 5.2 µM.
In the assay on PANC-1 [1], `C[C@@H]1CC[C@@]23CC[C@]4(C)[C@@](C=C[C@@H]5[C@@]6(C)CC[C@H](O)C(C)(C)[C@@H]6CC[C@]54C)(OC2=O)C3[C@H]1C` (stereo not given in full) registered a PC50 of 0.4 µM.
Still for that read-out and setting: with `CC(=O)[C@@H]1CC[C@]2(C(=O)O)CC[C@]3(C)[C@H](CC[C@@H]4[C@@]5(C)CC[C@H](O)C(C)(C)[C@@H]5CC[C@]43C)[C@@H]12` [PLATANIC ACID] the figure was 14.2 µM.
For `CC1(C)CC[C@]2(C(=O)O)CC[C@]3(C)C(=CC[C@@H]4[C@@]5(C)CC[C@H](O)C(C)(C)[C@@H]5CC[C@]43C)[C@@H]2C1` [OLEANOLIC_ACID], in the assay on PANC-1 [1], the PC50 is 20.5 µM.
In the assay with PANC-1 [1], `COc1cc(C[C@H]2C(=O)OC[C@@H]2Cc2ccc(OC)c(OC)c2)ccc1O` [ARCTIGENIN] had a PC50 of 0.7 µM.
For `C=C(C)[C@@H]1CC[C@]2(CO)CC[C@]3(C)[C@H](CC[C@@H]4[C@@]5(C)CC[C@H](O)C(C)(C)[C@@H]5CC[C@]43C)[C@@H]12` [BETULIN], in the assay on PANC-1 [1], the PC50 was 0.7 µM.
As to `CC(C)CC(=O)c1c(O)c2c(c([C@H](C3=C(O)C(C)(C)C(=O)C(C)(C)C3=O)C(C)C)c1O)O[C@]1(C)C=C[C@@H](C(C)C)C[C@H]21`, the inhibition at 20 µM stood at 94% with PANC-1 [2], 80% with PANC-1 [5], 96% with PANC-1 [7] and 89% in the assay on PANC-1 [11]. The inhibition entry in the assay with PANC-1 [3] is “Active”. For the same compound, the outcome in the assay on PANC-1 [4] was Active. Besides, the inhibition at 10 µM in the assay with PANC-1 [6] was 87%; with PANC-1 [9] it was 76%; in the assay with PANC-1 [10], 67%; in the assay with PANC-1 [12], 65%. For the same compound, the inhibition entry in the assay on PANC-1 [8] was “Dose-dependent effect”.
Turning to `C[C@H]1[C@H](C)CC[C@]2(C(=O)O)CC[C@]3(C)C(=CC[C@@H]4[C@@]5(C)CC[C@H](O)C(C)(C)[C@@H]5CC[C@]43C)[C@H]12` [URSOLIC ACID], the PC50 in the assay on PANC-1 [1] was determined as 13.7 µM.
Still for that read-out and setting: with `CC1(C)CC[C@]2(CO)CC[C@]3(C)C(=CC[C@@H]4[C@@]5(C)CC[C@H](O)C(C)(C)[C@@H]5CC[C@]43C)[C@@H]2C1` [ERYTHRODIOL] the figure was 0.2 µM; with `C=C(C)[C@@H]1CC[C@]2(C(=O)O)CC[C@]3(C)[C@H](CC[C@@H]4[C@@]5(C)CC[C@H](O)C(C)(C)[C@@H]5CC[C@]43C)[C@@H]12` [BETULINIC ACID], 15.2 µM.
